From patent publication US7807654B2, “Compositions and methods for treatment of mitochondrial diseases” (Wellstat Therapeutics Corporation, priority 1998, dated 2010) come the findings set out here.

Assay [1] relates to child with epilepsy, ataxia, language delay, fat intolerance, dicarboxylic aciduria. As to the kind of experiment: Treatment of developmental delay (case, Example 4). In kind it is in vivo, human. The settings on record: daily dose of 0.1 to 0.3 g/kg/day. How it is done:
A child with epilepsy, ataxia, language delay, and fat intolerance, and dicarboxylic aciduria was treated with triacetyluridine at a daily dose of 0.1 to 0.3 g/kg/day.

Another assay deals with taxol-treated mice. As to the kind of experiment: Taxol-induced neuropathy, tail-flick latency. It counts as in vivo. The settings on record: nine days after initiation of taxol 21.6 mg/kg/day i.p. for 6 days; oral triacetyluridine 4000 mg/kg b.i.d. How it is done:
Two groups of 10 mice each were treated with taxol, 21.6 mg/kg/day for 6 consecutive days by intraperitoneal injection. An additional group of 10 mice received injections of vehicle alone. One of the groups of taxol-treated mice received oral triacetyluridine, 4000 mg/kg b.i.d. Nine days after the initiation of taxol treatments, nociceptive sensory deficits were tested by determining tail-flick latency after exposure of the tip of the tail to focused thermal radiation with an infrared heat lamp. In this system, delays in the tail-flick response to radiant heat correlate with sensory nerve deficits.
(Hot-plate and tail-flick tests time the reaction to a heat stimulus.)

Assay [2] relates to MPTP treated mice. As to the kind of experiment: MPTP model of Parkinson's disease, second study. In kind it is in vivo, C57/BL6 mice. The settings on record: MPTP b.i.d. for 2 days, sacrificed on day 9, mean ± SEM. The protocol:
A second study using MPTP (25 mg/kg i.p. b.i.d. for 2 days) was performed. […] TAU or vehicle was given orally (dose of TAU=4 g/kg bw b.i.d.) starting the day before MPTP administration and ending on day 8. Mice were sacrificed on day 9.

Assay [3] has as its system 3NP treated mice. As to the kind of experiment: 3-nitropropionic acid (3NP) model of Huntington's disease. In kind it is in vivo, Swiss mice. The settings on record: at anytime during the study. The protocol:
Male 6-8 month old Swiss mice (National Cancer Institute; NCI, Frederick, Md.) were treated with 3NP (65 mg/kg i.p.) daily for 4 days to induce mortality, neuronal cell loss and behavioral impairment with n=8/group. […] On day 9, the mice were perfuse fixed with 10% buffered formalin and processed for silver staining to detect neuronal damage. […] There was no mortality in the 3NP+TAU group, but 3 of 8 mice died in the vehicle+3NP group.
Behavioral scoring of the 3NP treated mice was to determine whether there was any motor impairment at anytime during the study. There were 88% of the control+3NP treated mice with behavioral impairment indicated by gross observation. A decreased incidence of impairment of only 50% was found in the TAU+3NP treated mice.
The silver staining was analyzed by a pathologist blinded to the identity of tissue samples. […] However, in the control+3NP treated mice, silver staining of synaptic terminals in the striatal area (caudate/putamen area) and substantia nigra was pronounced. Silver impregnation of axons and/or synaptic terminals in the thalamus, deep mesencephalon and/or reticular formation (medulla) was also found in […] of the control+3NP treated mice. The substantia nigra projects to the striatum and these areas are especially vulnerable to damage by 3NP. The damage to the substantia nigra and striatum was prevented by TAU.

For assay [4], the system named is 3NP treated mice. The assay can be described thus: 3-nitropropionic acid (3NP) model of epilepsy. It counts as in vivo, CD-1 mice. The settings on record: for Latency to clonic seizure: mean ± SEM. An excerpt:
3-nitropropionic acid (3NP) is a mitochondrial toxin that acts by inhibiting Complex II of the respiratory chain; it is used to induce brain lesions similar to those characteristic of Huntington's disease. Seizures can also be induced by the use of 3NP as a model of epilepsy and mitochondrial dysfunction. Urbanska et al., Eur J Pharmacol, 359: 55-8 (1998). Male CD-1 mice (National Cancer Institute, NCI, Frederick. Md.) weighing between […] were used throughout. Mice were divided into groups of 5 and animals for each group were randomly chosen from different cages to avoid possible influence of age. The mice were maintained on a 12 hr light dark cycle with free access to water and food. All experiments were performed during the light period between 9:00 and 16:00 hr. Mice (n=17-20) were given 160 mg/kg 3NP and followed for seizures. 3NP was made up at 16 mg or 18 mg/ml in sterile water (pH: 7.4). 3NP was administered i.p. in a volume of 0.1 m/10 g body weight. […] Seizures were assessed similar to the methods previously described (Roberts & Keith, J Pharmacol Exp Ther, 270:505-11, 1994; Urbanska et al., Eur J Pharmacol, 359:55-8, 1998).
Behavioral observations were performed within 120 min following application of 3-NP. Three major categories of convulsive seizure response were been considered and recorded: • 1. Clonic movements: the movements of the forelimbs accompanied by facial twitching; • 2. Explosive clonic movements: the movement of all four limbs involving running, jumping and bouncing; • 3. Tonic response: including tonic flexion and tonic extension of the all four limbs.
Mortality rate was evaluated at 120 min after 3NP injection.

For assay [5], the system named is mice given intrastriatal QA. The assay can be described thus: Quinolinic acid (QA) model of excitotoxicity. It counts as in vivo, Swiss mice. The settings on record: TAU 4 g/kg bw p.o. b.i.d.
Assay [6] has as its system mice infused with sodium azide. The assay can be described thus: Subcutaneous azide infusion: mortality, body weight, TUNEL staining. Further details: species or system C57/BL/6N mice. The settings on record: mouse, in vivo.
Assay [7] relates to MPTP treated mice. The assay can be described thus: MPTP model of Parkinson's disease, first study.
Where [8] appears, read: 160 mg/kg 3NP i.p., TAU 4 g/kg p.o. 2 hours prior, within 120 min.

As for `CC(=O)OC[C@H]1O[C@@H](n2ccc(=O)[nH]c2=O)[C@H](OC(C)=O)[C@@H]1OC(C)=O` [TAU, triacetyluridine], the “decline in seizure frequency” value in assay [1] was 50%. For the same molecule, the Tail flick latency with taxol-treated mice is 11.9 ± 0.7 s. Further, the “Striatal DA, MPTP-treated mice” value with MPTP treated mice [2] is given as 26.7 ± 0.9 ng DA/mg protein; with MPTP treated mice [7] (first study, eight days after stopping MPTP, mean ± SEM), 37.9 ± 7.4 ng DA/mg protein. Besides, the “mice with behavioral (motor) impairment by gross observation” value with 3NP treated mice [3] worked out at 50%. The “Latency to clonic seizure” value in the assay on 3NP treated mice [4] (160 mg/kg 3NP i.p., TAU 4 g/kg p.o. 2 hours prior) was 40.8 min; in the assay with 3NP treated mice [4] (160 mg/kg 3NP i.p., TAU 4 g/kg p.o. 2 hours prior, listed as TAU + 3NP) it was 40.8 ± 4.9 min. The “% Clonic seizures” value in the assay on 3NP treated mice [4] (setting [8]) was determined as 70.6%. Moreover, the “% Running seizures” value in the assay with 3NP treated mice [4] (setting [8]) was found to be 5.9%. For the same molecule, in the assay with 3NP treated mice [4] (at 120 min after 3NP injection), the “% Mortality” value is recorded as 11.8%. The “percent of mice surviving the 7 days” value in assay [5] (50 nmoles QA bilaterally in striatum) worked out at 73%; in assay [5] (100 nmoles QA bilaterally in striatum), 19%. The “mortality due to 60 μg/hr azide infusion” value in assay [6] is 30%. For the same molecule, in the assay with MPTP treated mice [7] (MPTP 30 mg/kg i.p. b.i.d. for 1.5 days, TAU 4 g/kg p.o. b.i.d.), the mortality was found to be 28.6%.

The term mortality denotes the share of the test organisms that died. The low end stands for more survivors, the high end for fewer survivors.
